Laboratory results as given in US11596639B2, “Substituted indole Mcl-1 inhibitors” (Vanderbilt University, priority 2016, dated 2023).
Read-outs that look alike come from different tables or passages of the source.

Experiments:
[1] = test system: H929 human cancer cell lines; test: Cellular viability / proliferation (Cell TiterGlo, 72 h); type: cell-based
Procedure, shortened: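 Top dose 50 μM, serially diluted 2-fold, applied one day after seeding (1,000 cells/well, 10% FBS), DMSO below 1%.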

Mcl-1 = Mcl-1 (Homo sapiens (Human), UniProt Q07820); test: TR-FRET binding assay, FITC-Bak peptide and MBP-tagged Mcl-1; details: read-out: Ki for Inhibition of Mcl-1 by TR-FRET assay
Sequence of Mcl-1 (Q07820 172-327): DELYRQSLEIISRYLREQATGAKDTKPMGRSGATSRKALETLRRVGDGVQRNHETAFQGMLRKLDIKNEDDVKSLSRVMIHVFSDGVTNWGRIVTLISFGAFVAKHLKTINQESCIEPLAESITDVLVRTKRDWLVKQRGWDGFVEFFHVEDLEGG
Experimental: Compounds are diluted in DMSO in a 16-point, semilog serial dilution scheme. […] The plate was mixed and incubated for 3 hours at room temperature. […] TR-FRET signal is plotted and IC50 and Ki values are calculated in the same manner as the fluorescence polarization anisotropy based competition assays.

[2] = Homo sapiens, NCI-H929, 72 h, read-out: GI50 on cellular proliferation of H929 human cancer cell lines, H929 cells, 72 h, Cell TiterGlo, 10% FBS

Cc1cc(OCCCc2c3n(c4c(-c5c(C)nn(C)c5C)c(Cl)ccc24)[C@H](C)CN(c2cc(CO)cc4c(C(=O)O)cn(C)c24)C3=O)cc(C)c1Cl [Example 506, (R)-7-(7-Chloro-10-(3-(4-chloro-3,5-dimethylphenoxy)propyl)-4-methyl-1-oxo-6-(1,3,5-trimethyl-1H-pyrazol-4-yl)-3,4-dihydropyrazino[1,2-a]indol-2(1H)-yl)-5-(hydroxymethyl)-1-methyl-1H-indole-3-carboxylic acid]
GI50 [1, 2]: 1300 nM
Ki (Mcl-1): < 0.2 nM

Cc1cc(OCCCc2c3n(c4c(-c5c(C)nn(C)c5C)c(Cl)ccc24)[C@H](C)CN(c2cn(Cc4ccc(F)c(F)c4)c4ccc(C(=O)O)cc24)C3=O)cc(C)c1Cl [Example 645, (R)-3-(7-chloro-10-(3-(4-chloro-3,5-dimethylphenoxy)propyl)-4-methyl-1-oxo-6-(1,3,5-trimethyl-1H-pyrazol-4-yl)-3,4-dihydropyrazino[1,2-a]indol-2(1H)-yl)-1-(3,4-difluorobenzyl)-1H-indole-5-carboxylic acid]
GI50 [1, 2]: 3700 nM
Ki (Mcl-1): 3.3 nM

COCCn1cc(N2C[C@@H](C)n3c(c(CCCOc4cc(C)c(Cl)c(C)c4)c4ccc(Cl)c(-c5c(C)nn(C)c5C)c43)C2=O)c2cc(-c3ncn(CCN4CCN(C)CC4)n3)ccc21 [Example 602, (R)-7-Chloro-10-(3-(4-chloro-3,5-dimethylphenoxy)propyl)-2-(1-(2-methoxyethyl)-5-(1-(2-(4-methylpiperazin-1-yl)ethyl)-1H-1,2,4-triazol-3-yl)-1H-indol-3-yl)-4-methyl-6-(1,3,5-trimethyl-1H-pyrazol-4-yl)-3,4-dihydropyrazino[1,2-a]indol-1(2H)-one]
GI50 [1, 2]: 430 nM
Ki (Mcl-1): 5.9 nM

COCCn1cc(N2C[C@@H](C)n3c(c(CCCOc4cc(C)c(Cl)c(C)c4)c4ccc(Cl)c(-c5c(C)nn(C)c5C)c43)C2=O)c2cc(-c3ncn(CC4CN(C(C)=O)C4)n3)ccc21 [Example 618, (R)-2-(5-(1-((1-Acetylazetidin-3-yl)methyl)-1H-1,2,4-triazol-3-yl)-1-(2-methoxyethyl)-1H-indol-3-yl)-7-chloro-10-(3-(4-chloro-3,5-dimethylphenoxy)propyl)-4-methyl-6-(1,3,5-trimethyl-1H-pyrazol-4-yl)-3,4-dihydropyrazino[1,2-a]indol-1(2H)-one]
GI50 [1, 2]: 360 nM
Ki (Mcl-1): 3.8 nM

COCCn1c(C(=O)O)cc2c(OC)ccc(N3C[C@@H](C)n4c(c(CCCOc5cc(C)c(Cl)c(C)c5)c5ccc(Cl)c(-c6c(C)n[nH]c6C)c54)C3=O)c21 [Example 728, (R)-7-(7-chloro-10-(3-(4-chloro-3,5-dimethylphenoxy)propyl)-6-(3,5-dimethyl-1H-pyrazol-4-yl)-4-methyl-1-oxo-3,4-dihydropyrazino[1,2-a]indol-2(1H)-yl)-4-methoxy-1-(2-methoxyethyl)-1H-indole-2-carboxylic acid]
GI50 [1, 2]: 710 nM
Ki (Mcl-1): < 0.2 nM

COCCn1cc(C(=O)O)c2cc(OC)cc(N3C[C@@H](C)n4c(c(CCCOc5cc(C)c(Cl)c(C)c5)c5ccc(Cl)c(-c6c(C)nn(C)c6C)c54)C3=O)c21 (single isomer, unassigned) [Example 673]
GI50 ([1]; read-out: GI50 on cellular proliferation of H929 human cancer cell lines, H929 cells, 72 h, Cell TiterGlo, 10% FBS): 230 nM
Ki (Mcl-1): 0.31 nM

Cc1cc(OCCCc2c3n(c4c(-c5c(C)ncnc5C)c(Cl)ccc24)[C@H](C)CN(c2cn(C)c4ccc(C(=O)O)nc24)C3=O)cc(C)c1Cl [Example 651, (R)-3-(7-chloro-10-(3-(4-chloro-3,5-dimethylphenoxy)propyl)-6-(4,6-dimethylpyrimidin-5-yl)-4-methyl-1-oxo-3,4-dihydropyrazino[1,2-a]indol-2(1H)-yl)-1-methyl-1H-pyrrolo[3,2-b]pyridine-5-carboxylic acid]
GI50 [1, 2]: 290 nM
Ki (Mcl-1): < 0.2 nM
